According to PMC10142183, “Optimization of polymyxin B regimens for the treatment of carbapenem-resistant organism nosocomial pneumonia: a real-world prospective study” (Critical Care, 2023):
Positions of bridges follow the written chain, without caps; N, C: chain ends. Non-standard residues stand in square brackets, D forms with d. Residues, ends and D or L forms follow the SMILES beside them. *: point of attachment. X1 = CC[C@H](C)CCCCC(=O)*; Dab = NCC[C@H](N)C(=O)O

Columns and labels:
CRO nosocomial pneumonia [1] = assay: PK/PD analysis for clinical efficacy in CRO nosocomial pneumonia; format: in vivo, human
Procedure: This prospective study was conducted at two intensive care units (ICU) between January 2020 and December 2021 in the Second Xiangya Hospital of Central South University (Changsha, China). […] The exclusion criteria were as follows: (a) concomitant lung cancer with obstructive pneumonitis or cystic fibrosis; (b) solid organ transplantation; (c) hematologic malignancies and hematopoietic cell transplant recipients; (d) receiving renal replacement therapy. HAP was defined according to the 2016 clinical practice guidelines of the Infectious Diseases Society of America and the American Thoracic Society. Determination of carbapenem susceptibility of CRO was followed by the European Committee on Antimicrobial Susceptibility Testing (EUCAST). Updated EUCAST Clinical Breakpoints of polymyxin B were sensitivity (S ≤ 2 mg/L) and drug resistance (R > 2 mg/L). The antimicrobial susceptibility testing was performed using the VITEK-2 Compact system with VITEK cards (0.5–16 mg/L for colistin) (bioMérieux, France). The following information was extracted from the electronic medical records: demographic and co-morbidity profiles, clinical and microbiological features of the infections, and the antimicrobial treatment regimens. Creatinine clearance (CrCL) was calculated using the Cockcroft–Gault equation. The endpoint was clinical efficacy and 30-day all-cause mortality. Assessment of clinical efficacy was conducted at the end of treatment, and 30-day mortality was recorded from the start of polymyxin B treatment. This prospective study was approved by the Ethics Committee of the Second Xiangya Hospital, Central South University. Informed consent was obtained from all patients or legal representatives of the patients (No. ChiCTR1900022231).
Clinical outcomes were classified as clinical success (CS) and clinical failure (CF), and were assessed by two physicians. CS was defined as a composite of survival; hemodynamic stability; body temperature < 38 °C, improved biochemistry indicators of infection; stable or improved PaO2/FiO2 ratio. Additionally, for patients with bacteremia, microbiological cure (no growth of the initial isolate in blood cultures) must be achieved by the end of the treatment. […] 30-day all-cause mortality was recorded from the start of polymyxin B treatment.
Variables potentially related to clinical efficacy and 30-day all-cause mortality were assessed, including: demographics, co-morbidities, clinical conditions, dosage regimen and concentration of polymyxin B. To develop receiver operating characteristic (ROC) curves, the PK/PD indices AUCss,24 h/MIC, Cmax,ss/MIC and Cmin,ss/MIC were used as predictors of clinical efficacy. The area under the diagnostic curve (AUCROC) was calculated to evaluate the correlation of the above parameters with clinical efficacy and 30-day all-cause mortality. Youden index of the ROC curves was calculated by "sensitivity + specificity-1", and the values corresponding to the maximum Youden index is the optimal cutoff point value of the PK/PD indices.
Statistical analysis was performed with SPSS 24.0 (SPSS, IBM Company, Chicago, IL, USA) software. Continuous variables are presented as the mean ± standard deviation (SD) if normally distributed and were compared using Student’s t tests. The median and interquartile range (IQR) are presented for abnormally distributed data, and the Mann–Whitney U test was used. Categorical variables are expressed as counts and percentages, and the chi-square test or Fisher’s exact test was used. Spearman’s rank correlation coefficient (r) was used to analyze the correlation between Cmin,ss, Cmax,ss and AUCss,24 h. Univariate analysis was performed for all variables to identify possible predictors for clinical efficacy. Variables with a p < 0.05 were entered into the multivariate logistic regression models. […]

[2] = critically ill patients; weight-based regimen 1.25-1.5 mg/kg every 12 h; cited from earlier work
Procedure: At present, weight-based dosing regimen (1.25–1.5 mg/kg every 12 h) is recommended for polymyxin B [17, 18]. However, polymyxin B concentration varies widely in critically ill patients with this regimen, and almost 30% patients cannot achieve AUCss,24 h values within the target therapeutic window. […] Due to these inconsistent results, further research is needed to improve the charac ...

CRO nosocomial pneumonia [3] = assay: 30-day all-cause mortality in CRO nosocomial pneumonia; format: in vivo, human; details: Cox regression, p = 0.001
Procedure: This prospective study was conducted at two intensive care units (ICU) between January 2020 and December 2021 in the Second Xiangya Hospital of Central South University (Changsha, China). […] The exclusion criteria were as follows: (a) concomitant lung cancer with obstructive pneumonitis or cystic fibrosis; (b) solid organ transplantation; (c) hematologic malignancies and hematopoietic cell transplant recipients; (d) receiving renal replacement therapy. HAP was defined according to the 2016 clinical practice guidelines of the Infectious Diseases Society of America and the American Thoracic Society. Determination of carbapenem susceptibility of CRO was followed by the European Committee on Antimicrobial Susceptibility Testing (EUCAST). […] Creatinine clearance (CrCL) was calculated using the Cockcroft–Gault equation. […] Assessment of clinical efficacy was conducted at the end of treatment, and 30-day mortality was recorded from the start of polymyxin B treatment. […]
Clinical outcomes were classified as clinical success (CS) and clinical failure (CF), and were assessed by two physicians. […] 30-day all-cause mortality was recorded from the start of polymyxin B treatment. […]
Statistical analysis was performed with SPSS 24.0 (SPSS, IBM Company, Chicago, IL, USA) software. […] Categorical variables are expressed as counts and percentages, and the chi-square test or Fisher’s exact test was used. […]

[4] = Population PK model and plasma exposure in critically ill patients (HPLC-MS/MS, Phoenix NLME); format: in vivo, human; parameters: AUCss, 24h: concentration or dose not given beside the values
Procedure: Polymyxin B was given to all patients empirically as a loading dose of 100–200 mg followed by a maintenance dose of 40–100 mg every 12 h for at least 3 days. The infusion time was at least 1 h. Aerosol delivery of polymyxin B (25 mg or 50 mg twice daily) was using a vibrating mesh nebulizer, synchronized with the inspiratory cycle of the ventilator. Two to six blood samples (2 mL) were randomly collected immediately before the seventh dose of polymyxin B and at 0, 1, 2, 4, 6, 8 and 10 h after the end of infusion. The supernatant was immediately stored at − 80 °C until analysis.
An established high-performance liquid chromatography-tandem mass spectrometry (HPLC–MS/MS) was used to measure the concentrations of polymyxin B1 and polymyxin B2 as described previously by the authors’ laboratory (The total concentration of polymyxin B = [polymyxin B1 concentration/polymyxin B1 molecular + polymyxin B2 concentration/polymyxin B2 molecular]*total polymyxin B molecular). The interday precision was < 12%, the intraday precision was < 9%, and the accuracy ranged from 96.1 to 110.4%. The limit of quantification (LLOD) was 0.03 mg/L, and all of the polymyxin B concentrations detected were over LLOD.
The Phoenix NLME program (version 8.1. Pharsight, A Certara Company, USA) with the method of first-order conditional estimation-extended least square method (FOCE-ELS) was used to develop the population PK model by analyzing polymyxin B concentration. The objective function value (OFV), goodness-of-fit plots and the reasonable of population PK parameters were used to selection of the structure model. The stepwise covariate modeling (SCM) approach was used to test the covariate model in this analysis; age, sex, body weight, alanine aminotransferase (ALT), aspartate aminotransferase (AST), total bilirubin (TBIL), direct bilirubin (DBIL), serum albumin (ALB) and CrCL were evaluated as the covariates. The SCM consists of a forward selection step (the criterion is p < 0.05 for ΔOFV decreased ≥ 3.84) and a backward elimination step (the criterion is p < 0.001 for ΔOFV increased ≥ 10.83). In addition, the goodness-of-fit plots were used to assess the validity of the population PK model, the prediction-corrected visual predictive check (pcVPC) was used to assess the predictive performance of the key models. The bootstrap method was used to assess the accuracy.
The PK/PD indices included AUCss,24 h, AUCss,24 h/MIC, the peak and trough concentration at steady state (Cmax,ss and Cmin,ss), Cmax,ss /MIC and Cmin,ss /MIC. AUCss,24 h, Cmax,ss and Cmin,ss were calculated based on the empirical Bayesian (EBEs). For those patients with more than one baseline pathogen, AUCss,24 h/MIC, Cmax,ss /MIC and Cmin,ss /MIC evaluations were based on the pathogen with the highest MIC value.

[5] = 30-day non-survival group (n = 28), median (IQR)
[6] = 30-day survival group (n = 77), median (IQR)
[7] = clinical failure group (n = 35), median (IQR)
[8] = clinical success group (n = 70), median (IQR)
[9] = final model estimate, two-compartment population PK, 105 patients, 295 plasma concentrations
[10] = median of 105 patients, plasma, empirical Bayesian estimates

In the case of `CC[C@H](C)CCCCC(=O)N[C@@H](CCN)C(=O)N[C@H](C(=O)N[C@@H](CCN)C(=O)N[C@H]1CCNC(=O)[C@H]([C@@H](C)O)NC(=O)[C@H](CCN)NC(=O)[C@H](CCN)NC(=O)[C@H](CC(C)C)NC(=O)[C@@H](Cc2ccccc2)NC(=O)[C@H](CCN)NC1=O)[C@@H](C)O` [polymyxin B] (X1-[Dab]T[Dab][Dab][Dab][dF]L[Dab][Dab]T; lactam 4-C), the “OR of combination of inhaled polymyxin B for clinical efficacy” value (CRO nosocomial pneumonia [1]; 51 patients with AUCss,24 h/MIC < 66.9, 95% CI 0.06-0.79, p = 0.022) is reported as 0.21, the “OR of combination of inhaled polymyxin B for clinical efficacy” value (CRO nosocomial pneumonia [1]; 54 patients with AUCss,24 h/MIC ≥ 66.9, 95% CI 0.09-2.46, p = 0.365) is reported as 0.46 and the “AOR of dose normalized-AUCss,24 h/MIC for efficacy” value (CRO nosocomial pneumonia [1]; Covariate-Adjusted Residuals method, 95% CI 0.38-1.01, p = 0.056) is reported as 0.62. The clinical success rate (CRO nosocomial pneumonia [1]; IV + IH group, AUCss,24 h/MIC ≥ 66.9 (54 patients)) was 90.0%, the clinical success rate (CRO nosocomial pneumonia [1]; IV group, AUCss,24 h/MIC < 66.9 (51 patients)) was 35.1% and the clinical success rate (CRO nosocomial pneumonia [1]; IV group, AUCss,24 h/MIC ≥ 66.9 (54 patients)) was 82.3%. The “favorable clinical outcomes in pneumonia patients with AUCss,24 h > 66.9” value (CRO nosocomial pneumonia [1]; MIC mostly 1 mg/L) was 85.2%, the “optimal cutoff point value of AUCss,24 h/MIC for clinical efficacy” value (CRO nosocomial pneumonia [1]; ROC curve, largest Youden index, patients receiving combination therapy) was 66.9 and the clinical success rate (CRO nosocomial pneumonia [1]; all 105 patients (70/105), assessed at end of treatment, combination therapy with another antimicrobial) was 66.7%. For the same compound, the clinical success rate (CRO nosocomial pneumonia [1]; intravenous plus inhaled (IV + IH) group, AUCss,24 h/MIC < 66.9 (51 patients)) was 71.4%, the “Adjusted OR (95% CI) of AUCss,24 h/MIC for clinical efficacy” value (CRO nosocomial pneumonia [1]; multivariate logistic regression, p = 0.009) was 0.97 (0.95–0.99) and the “Adjusted OR (95% CI) of daily dose (mg) for clinical efficacy” value (CRO nosocomial pneumonia [1]; multivariate logistic regression, p = 0.028, listed as PMB) was 0.98 (0.97–0.99). For the same compound, the “Adjusted OR (95% CI) of combination of inhaled polymyxin B for clinical efficacy” value (CRO nosocomial pneumonia [1]; multivariate logistic regression, p = 0.039, aerosol 25 or 50 mg twice daily, listed as PMB) was 0.32 (0.11–0.94), the “patients who cannot achieve AUCss,24 h values within the target therapeutic window” value [2] was ~30% and the “HR (95% CI) of PMB treatment duration (day) for 30-day mortality” value (CRO nosocomial pneumonia [3]) was 0.67 (0.53-0.85). For the same compound, the “AUCss, 24h” value [4, 5] was 62.1 (46.3, 83.2) mg·h/L, the “Cmax,ss” value [4, 5] was 5.4 (4.6, 6.1) μg/mL and the “Cmin,ss” value [4, 5] was 2.1 (1.6, 2.6) μg/mL. For the same compound, the “Cmin,ss /MIC” value [4, 5] was 2.2 (1.6, 2.7), the “AUCss, 24h” value [4, 6] was 69.4 (58.5, 86.9) mg·h/L and the “Cmax,ss” value [4, 6] was 6.5 (5.8, 7.2) μg/mL. The “Cmin,ss” value [4, 6] was 2.2 (1.9, 2.5) μg/mL, the “Cmin,ss /MIC” value [4, 6] was 2.2 (1.9, 2.5) and the “CL (clearance in central compartment)” value ([4]; bootstrap method estimate) was 1.56 L/h. For the same compound, the “CLd (clearance between central and peripheral compartment)” value ([4]; bootstrap method estimate) was 2.41 L/h, the “Vc (volume distribution in central compartment)” value ([4]; bootstrap method estimate) was 12.5 L and the “Vp (volume in peripheral compartment)” value ([4]; bootstrap method estimate) was 29.9 L. For the same compound, the “AUCss, 24h” value [4, 7] was 60.6 (43.5, 66.6) mg·h/L, the “Cmax,ss” value [4, 7] was 5.1 (3.7, 6.9) μg/mL and the “Cmin,ss” value [4, 7] was 1.8 (1.0, 2.5) μg/mL. The “Cmin,ss /MIC” value [4, 7] was 1.7 (0.9, 1.9), the “AUCss, 24h” value [4, 8] was 78.6 (62.4, 84.2) mg·h/L and the “Cmax,ss” value [4, 8] was 6.8 (5.0, 7.6) μg/mL. The “Cmin,ss” value [4, 8] was 2.4 (1.6, 2.8) μg/mL, the “Cmin,ss /MIC” value [4, 8] was 2.4 (1.4, 3.1) and the “CLd (clearance between central and peripheral compartment)” value [4, 9] was 2.41 L/h. The “Vc (volume distribution in central compartment)” value [4, 9] was 12.5 L, the “Vp (volume in peripheral compartment)” value [4, 9] was 29.9 L and the “CL (clearance in central compartment)” value ([4]; final model estimate, two-compartment population PK, 105 patients, 295 plasma concentrations, IV 100-200 mg loading then 40-100 mg every 12 h) was 1.56 L/h. The “AUCss, 24h” value [4, 10] was 67.2 mg·h/L, the “Cmax,ss (peak concentration at steady state)” value [4, 10] was 5.9 mg/L and the “Cmin,ss (trough concentration at steady state)” value [4, 10] was 1.9 mg/L.
